Our source for the melting point values is a melting point compilation (Tetko et al.; mined from patent text by program, amines drawn as free bases though some values may be those of a salt).

On to `COC(=O)c1ccccc1C(=O)c1ccc(N2CCC(N3C(=O)OCc4ccc(Cl)cc43)CC2)c([N+](=O)[O-])c1`, for which the melting point (in general, the temperature, or range, at which the solid turns liquid) fell in the range of 90 to 92 °C. `CNC(=S)C(CN1CCOCC1)(OC)c1ccccn1` (configuration not stated) had a melting point of 128 to 132 °C.

Consider `CP(=O)(NCC(=O)OCc1ccccc1)C1CC(c2ccccc2)=NO1` (configuration not stated), for which the melting point was 132 to 135 °C. As for `c1ccc(Oc2cccnc2N2CCNCC2)cc1`, the melting point lay within 56 to 59 °C. The same measure for `CC(=O)N1C(=O)c2cccnc2N(C2CC2)c2nc(Cl)cc(C)c21`: 204 to 206 °C. Take `N#Cc1ccc(-c2nc(-c3ccc(F)cc3)c(-c3ccncc3)[nH]2)cc1`: the melting point was in the range of 268 to 269 °C. The same measure for `O=C(NCCO)c1cccc(-c2cc3c(ccn3Cc3ccc(Cl)cc3Cl)cn2)c1`: 198 to 199 °C. Then `N=C(N)NC(=O)c1nc(F)c(N)nc1N`, with 233 °C. The same measure for `Nc1cccc(C=Cc2ccc3ccccc3n2)c1`: 158 to 160 °C. `CC1(O)CSC(=S)N1c1ccccn1` (configuration not stated) showed a melting point of 120 °C. `CCOC(=O)[C@H](CCc1ccccc1)N[C@@H](C)C(=O)N1N=C(C(C)(C)C)S[C@H]1C(=O)O` displayed a melting point of 165 to 168 °C. Consider `Cc1cc(C2=NOC(c3cc(Cl)cc(Cl)c3)(C(F)(F)F)C2)ccc1C(=O)Nc1ncccn1` (configuration not stated), for which the melting point lay within 122 to 124 °C. Then `CC(=O)OC(C)c1nccc2[nH]c(=O)ccc12` (configuration not stated), with 185 to 187 °C; and `CCCCCCCCCCCCCCCCCCOP(=O)(Cc1cc(Cl)c(O)c(C(C)(C)C)c1)OCCCCCCCCCCCCCCCCCC`, with 55 °C. The molecule `CN1C(=O)C2C3C=CC(C3)C2(c2ccc(N)cc2)C1=O` (configuration not stated) yielded a melting point of 129 to 131 °C. `Cc1cn(C2CC(ON)C(CO)O2)c(=O)[nH]c1=O` (configuration not stated): the melting point was 81 °C. `COC(=O)c1ccc2[nH]cc(CC#N)c2c1` registered a melting point of 127 to 129 °C.

Molecule `CCC(C)N1C(=O)c2ccccc2Oc2ncccc21` (configuration not stated) had a melting point of 137 to 138 °C.

Turning to `Cc1ccnc(C(=O)c2[nH]c3ccc(Cl)cc3c2CC(=O)NCCO)c1`, the melting point is 196 °C.

`CC(=O)c1ccc(Br)c(S(N)(=O)=O)c1`: the melting point amounted to 161 °C. In the case of `CCOCc1cc(OC)c(-c2ccc(C[C@H](NC(=O)c3c(F)cccc3Cl)C(=O)O)cc2)c(OC)c1`, the melting point lay within 182 to 184 °C. `O=CN(O)C(Cc1cccc(CC(=O)O)c1)CS(=O)(=O)c1ccc(Oc2ccc(OC(F)(F)F)cc2)cc1` (configuration not stated): the melting point fell in the range of 138 to 140 °C. The same measure for `CC(=O)Nc1ccc(OC(=O)CO)cc1`: 144 to 146 °C; for `COc1ccc2[nH]c(SCc3ncnc(N4CCOCC4)c3C)nc2c1`: 129 to 131 °C; for `CCN1CCN(c2cccc(Nc3nc4c(-c5ccc(P(C)(C)=O)cc5)cccn4n3)c2)C(=O)C1`: 205 to 207 °C. As for `Cc1c(Cl)cc(C(C)(C)C)c(O)c1-c1nc2cc(C#N)ccc2[nH]1`, the melting point came to 258 °C. Then `COc1cc([N+](=O)[O-])ccc1COP(N)(=O)N(CCCl)CCCl` (configuration not stated), with 102 to 104 °C; and `CCCn1c(=O)c2c(nc(/C=C/c3ccc(OC)c(OC(C)=O)c3)n2C)n(CCC)c1=O`, with 201 to 202 °C.

As to `CCCCS(=O)c1nc[nH]n1` (configuration not stated), the melting point lay within 82 to 83 °C. Molecule `O=C(O)C1(O)CCCN(Cc2ccccc2)C1` (configuration not stated) displayed a melting point of 104 °C.

Molecule `COc1ccc(-c2ccc(Cl)nn2)c(OCC2CO2)c1` (configuration not stated) displayed a melting point of 111 to 112 °C. `O=C1CCC(c2ccc(O)cc2)N1` (configuration not stated): the melting point stood at 183 °C.

For the molecule `COC(=O)CCC(=O)c1ccc(-c2ccc(Cl)cc2F)cc1`, the melting point lay in the range of 90.5 to 92.5 °C. Take `CC(=O)Nc1ccc(NCc2cnc3nc(N)nc(N)c3n2)cc1`: the melting point was over 260 °C. Regarding `COCCc1nc2c(N)nc3cc(-c4ccccc4)ccc3c2n1CCCN1CCCC1=O`, the melting point was 187 to 191 °C. For `CCOC(=O)C(=CNc1ccc(COC(C)=O)cc1I)C(=O)OCC`, the melting point lay in the range of 128 to 131 °C. Then `COC(=O)C=C1C(=O)NC(=O)N1C`, with 100 °C; and `O=C(O)/C=C/c1ccc(-c2nc3c(=O)n(Cc4ccccc4)c(=O)n(Cc4ccccc4)c3[nH]2)cc1`, with over 300 °C; and `CC(C)C(=O)O[C@@H](OC(=O)ON1C(=O)[C@H](OC(=O)c2ccccc2)[C@@H](OC(=O)c2ccccc2)C1=O)C(C)C`, with 138 to 140 °C. Turning to `CC(C)(C)c1cc(Cc2ccc(Cl)nn2)c(O)c(C(C)(C)C)c1`, the melting point lay within 143 to 144 °C.

As to `CCCC(=O)c1cnc2c(OC)nccc2c1Nc1ccccc1C`, the melting point is 144 °C.

As for `Cc1ccc(S(=O)(=O)NN=C2CCCC(=O)C2Cc2ccccc2)cc1` (configuration not stated), the melting point was in the range of 172 to 173 °C. For the molecule `O=C(Nc1ccncc1)c1ccc(-n2nc(C(F)(F)F)cc2C(F)(F)F)cc1`, the melting point fell in the range of 234 to 235 °C. The same measure for `CC1=Cc2cc(F)c(F)cc2C1`: 86 to 90 °C. Take `CCCCCOc1cc(C=CC(=O)O)ccc1OC`: the melting point worked out at 150 °C.

Take `Cc1nccn1CCC(=O)NC(C)c1ccc(Cl)cc1` (configuration not stated): the melting point lay in the range of 135 to 137 °C. The same measure for `CCOC(=O)C1CCC2(NCCc3cc(OC)c(OC)cc32)C(C2c3cc(OC)c(OC)cc3CCN2CC)C1` (configuration not stated): 140 to 142 °C; for `CCN(CC)c1cc(C)c2c(c1)C(=O)OC2=O`: 128 °C. The molecule `COC(=O)c1ccc(OCCNC(=O)C2Cc3ccccc3N2S(=O)(=O)c2ccc(-c3cccc(C(F)(F)F)c3)cc2)c(C(F)(F)F)c1` (configuration not stated) displayed a melting point of 92 to 98 °C. For the molecule `NC(=O)c1c(O)cccc1OCCBr`, the melting point lay within 120 to 121 °C. Turning to `CC12CCC(C(=Cc3ccc(CI)cc3)C1=O)C2(C)C` (configuration not stated), the melting point is 108 °C. The same measure for `CC(C)(C)Cc1ccc(C(=O)c2ccccc2C(=O)O)cc1`: 154 °C.

On to `CC(C)(C)c1csc(N)c1C#N`, for which the melting point stood at 92 °C. `O=C(O)CCn1nc(-c2c(-c3ccccc3)nn3ccccc23)cc1O` gave a melting point of 211 to 213 °C.

`CCCCCCCNC(=S)N(C)c1cccc(-c2ccc(CCC(=O)O)cc2)c1` displayed a melting point of 95 to 96 °C. Take `C=CC(=O)OCCOc1ccc(Cl)c2c1Sc1ccccc1C2`: the melting point fell in the range of 90 to 91 °C.

`CC(C(N)=O)c1ccc(NS(=O)(=O)C(C)C)cc1` (configuration not stated) had a melting point of 125 to 127 °C. `C=CCC(CO)C(O)c1ccccc1` (configuration not stated) returned a melting point of 41 to 43 °C. Then `CS(=O)(=O)Nc1cc2c(c(C(=O)O)c1)NCCC2`, with 244 °C; and `COc1ccc(-c2nc(C)c(-c3cccnc3)[nH]2)cc1OC`, with 246 to 248 °C; and `CC(C)(C)OC(=O)N1CCC(CCN2C(=O)C3(COc4cc5c(cc43)OCO5)c3ccccc32)CC1` (configuration not stated), with 173 to 175 °C. Then `COC(=O)NC(C)(C)c1ccc(CBr)cc1`, with 74 to 76 °C; and `Cc1nc[nH]c1CSCCNC(N)=C[N+](=O)[O-]`, with 193 to 195 °C. Then `Cc1csc2nc(COc3ccccc3)cn12`, with 190 to 192 °C; and `Nc1ccc2c(c1)Sc1ccc(N)cc1S2`, with 185 to 186 °C; and `Cc1cccc(-c2cc(F)c3c(c2)CC(CN)O3)c1` (configuration not stated), with over 250 °C.

Molecule `CN1CCC(c2c[nH]c3ccc(/C=C/C(N)=O)cc23)CC1` showed a melting point of 82 to 83.5 °C. The molecule `Cc1ccc(Br)cc1NC(=O)NCCCNCCCCl` gave a melting point of 145 to 148 °C. `CC(C)Nc1cccnc1N1CCN(C(=O)c2ccc(C(=O)NCCN(C)C)cc2)CC1` returned a melting point of 133 °C. For `N=C(N)NCCCCCOc1cccc2c1NC(=O)C(CC(=O)O)C2` (configuration not stated), the melting point lay in the range of 126 to 131 °C. The same measure for `CCCCCS(=O)(=O)NC(=O)CCc1cc(C(C)C)nn1Cc1ccc(C(F)(F)F)cc1Cl`: 144 to 145 °C; for `Nc1cccc2c(-c3ccc(=O)[nH]n3)c(-c3ccccc3)nn12`: 157 to 159 °C; for `CCCN(CCCCNc1ncc(CC2CCCCC2)c(=O)[nH]1)c1ccccn1`: 62 to 64 °C. `Cc1ccc(S(=O)(=O)N2CCCN(c3cccc(C)c3C)CC2)cc1` came in with a melting point of 86.2 °C. In turn, `CN1CCN(c2ccc(C(=O)CCC(=O)N3CCC(c4ccc(Cl)cc4)CC3)cc2)CC1` registered a melting point of 152 to 153 °C.

In turn, `O=C(O)CCCN1CCc2ccc(S(=O)(=O)Nc3ccc(Cl)cc3)cc2C1` came in with a melting point of 210 °C. Take `O=C(NO)c1ccc(I)cc1O`: the melting point was 195 to 196 °C.

`CCCCCCCC/C=C\c1ccccc1/C=C/C(C)=C/C=C/C(C)=C/C(=O)O` gave a melting point of 103 to 105 °C.

The molecule `CC(C)C[C@H](NC(=O)CCCc1ccccc1)C(=O)N[C@@H](Cc1ccccc1)C(=O)CSCc1ccco1` returned a melting point of 106 to 108 °C. As to `Cc1nc(-c2ccc3c(c2)CCCC3)c(Br)o1`, the melting point was in the range of 97 to 98 °C. The same measure for `CCc1cc(C(=O)OC)c(Nc2ccc(OC)cc2[N+](=O)[O-])s1`: 125 to 127 °C; for `O=C(O)CCc1cn(Cc2ccc(OCc3csc(-c4ccncc4)n3)cc2)cc1-c1ccccc1`: 149 to 150 °C. `C#Cc1ccc(CO[C@@H]2COc3nc([N+](=O)[O-])cn3C2)cn1` showed a melting point of 168 to 170 °C. As for `O=Cc1cc(-c2ccccc2)c(=O)n2c1-c1sccc1CC2`, the melting point is 213 to 215 °C. Regarding `Cc1onc(-c2ccc(Cl)o2)c1-c1ccc(F)cc1`, the melting point lay in the range of 104 to 105 °C. Consider `COCCn1cnc2cc(CN3CCN(C(c4ccccc4)c4ccccc4)CC3)ccc21`, for which the melting point amounted to 162 °C. Molecule `COc1cc(OC)nc(C2(C#N)OC(=O)c3c(Cl)cccc32)n1` (configuration not stated) returned a melting point of 159 to 161 °C. Then `CC(C)C(=O)c1ccc(N2CCOCC2)cc1`, with 75 to 77 °C. `COC1c2c(c(C)nn2-c2ccccn2)C(=O)CC1(C)C` (configuration not stated): the melting point lay in the range of 86 to 89 °C.

In turn, `CC(C)(C)OC(=O)NCC1CCn2c(cc3ccccc32)C1` (configuration not stated) showed a melting point of 80 to 85 °C. With `CN1CCCC1CCNc1nccc(Oc2ccc(NC(=O)c3cc(F)cc(N4CCCCC4)c3)c3ccccc23)n1` (configuration not stated), the melting point was 112 to 114 °C. Take `COc1ccc(C(O)C(C)N)cc1OC` (configuration not stated): the melting point lay in the range of 131 to 132 °C.
